Experimental data: ChEMBL document CHEMBL5233291, “Calamene-Type Sesqui-, Mero-, and Bis-sesquiterpenoids from Cultures of Heimiomyces sp., a Basidiomycete Collected in Africa” (J Nat Prod, 2023)
Active and inactive are the calls of the source.

Experiments:
Type in all cases: functional, organism-based
Escherichia coli = test: Antibacterial activity against Escherichia coli DSM 1116 assessed as inhibition of bacterial growth incubated for overnight by serial dilution assay
[1] = system: Schizosaccharomyces pombe; test: Antifungal activity against Schizosaccharomyces pombe DSM 70572 assessed as inhibition of fungal growth incubated for overnight by serial dilution assay
Mucor hiemalis = test: Antifungal activity against Mucor hiemalis DSM 2656 assessed as inhibition of fungal growth incubated for overnight by serial dilution assay
Rhodotorula glutinis = test: Antifungal activity against Rhodotorula glutinis DSM 10134 assessed as inhibition of fungal growth incubated for overnight by serial dilution assay
[2] = system: Mycolicibacterium smegmatis; test: Antibacterial activity against Mycobacterium smegmatis ATCC 700084 assessed as inhibition of bacterial growth incubated for overnight by serial dilution assay
Wickerhamomyces anomalus = test: Antifungal activity against Pichia anomala DSM 6766 assessed as inhibition of fungal growth incubated for overnight by serial dilution assay
[3] = system: Chromobacterium violaceum; test: Antibacterial activity against Chromobacterium violaceum DSM 30191 assessed as inhibition of bacterial growth incubated for overnight by serial dilution assay
Staphylococcus aureus = test: Antibacterial activity against Staphylococcus aureus DSM 346 assessed as inhibition of bacterial growth incubated for overnight by serial dilution assay
Bacillus subtilis = test: Antibacterial activity against Bacillus subtilis DSM 10 assessed as inhibition of bacterial growth incubated for overnight by serial dilution assay
Acinetobacter baumannii = test: Antibacterial activity against Acinetobacter baumannii […] DSM 30008 assessed as inhibition of bacterial growth incubated for overnight by serial dilution assay
Candida albicans = test: Antifungal activity against Candida albicans DSM 1665 assessed as inhibition of fungal growth incubated for overnight by serial dilution assay
Pseudomonas aeruginosa = test: Antibacterial activity against Pseudomonas aeruginosa DSM PA14 assessed as inhibition of bacterial growth incubated for overnight by serial dilution assay

Measured: Activity

CC(C)[C@H]1CC[C@H](C)c2c(O)c(O)c(C=O)c(C3=C(O)C(=O)C=C(O)C3=O)c21
inactive: all assays above

CC(C)[C@H]1CC[C@H](C)c2c(O)c(O)c3c(c21)C1=C(OC3)C(=O)C2=C(OCc3c(O)c(O)c4c(c32)[C@@H](C(C)C)CC[C@@H]4C)C1=O
inactive: all assays above

CC1=C(O)C(=O)C(c2c(C=O)c(O)c(O)c3c2[C@@H](C(C)C)CC[C@@H]3C)=C(O)C1=O
inactive: all assays above

CC(C)[C@H]1CC[C@H](C)c2c(O)c(O)c(CO)c(C3=C(O)C(=O)C4=C(OCc5c(O)c(O)c6c(c54)[C@@H](C(C)C)CC[C@@H]6C)C3=O)c21
inactive: all assays above

O=c1cc(O)cc(C2c3c(cc(/C=C/c4ccc(O)c(O)c4)oc3=O)OC2c2ccc(O)c(O)c2)o1 (stereo not given)
inactive: all assays above

O=c1cc(O)cc(/C=C/c2ccc(O)c(O)c2)o1
inactive: all assays above

Cc1c(O)c(O)c(C(C)C)c2c1CCC(C(=O)O)=C2
inactive: all assays above

CC(C)[C@H]1CC[C@H](C)c2c(O)c(O)c(C=O)c(C3=C(O)C(=O)C(c4c(C=O)c(O)c(O)c5c4[C@@H](C(C)C)CC[C@@H]5C)=C(O)C3=O)c21
inactive: all assays above

CC(C)[C@H]1CC[C@H](C)C2=C1C=C(C(=O)O)CC2
inactive: all assays above

CC(C)[C@H]1CC[C@H](C)c2c(O)c(O)c(C=O)c(C3=C(O)C(=O)C4=C(OCc5c(O)c(O)c6c(c54)[C@@H](C(C)C)CC[C@@H]6C)C3=O)c21
inactive: all assays above
